Test results published in patent US11707437B2, “Topical formulations with resiniferatoxin nanoparticles and methods” (priority 2019, dated 2023).

Columns and labels:
TRPV1 ion channel = TRPV1 ion channel (UniProt O35433); assay: patch clamp current recordings from HEK cells stably expressing TRPV1; type: cell-based; conditions: for reversibility of current response by washout: FIG. 3
Method: Y axis is current amplitude and X-axis is time indicated by a 2 min bar.

[1] = intraperitoneally in rats, over a period of 9 months; cited from earlier work
TRPV1 receptor = TRPV1 receptor (Homo sapiens, UniProt Q8NER1); conditions: cited from earlier work
[2] = system: TRPV1 positive peripheral terminals; conditions: local intra-dermal administration, rodents; cited from earlier work
[3] = system: TRPV1 expressing nerve terminals; conditions: intrathecal administration, STZ-induced diabetes; cited from earlier work

Sequence of TRPV1 receptor (Q8NER1 whole entry): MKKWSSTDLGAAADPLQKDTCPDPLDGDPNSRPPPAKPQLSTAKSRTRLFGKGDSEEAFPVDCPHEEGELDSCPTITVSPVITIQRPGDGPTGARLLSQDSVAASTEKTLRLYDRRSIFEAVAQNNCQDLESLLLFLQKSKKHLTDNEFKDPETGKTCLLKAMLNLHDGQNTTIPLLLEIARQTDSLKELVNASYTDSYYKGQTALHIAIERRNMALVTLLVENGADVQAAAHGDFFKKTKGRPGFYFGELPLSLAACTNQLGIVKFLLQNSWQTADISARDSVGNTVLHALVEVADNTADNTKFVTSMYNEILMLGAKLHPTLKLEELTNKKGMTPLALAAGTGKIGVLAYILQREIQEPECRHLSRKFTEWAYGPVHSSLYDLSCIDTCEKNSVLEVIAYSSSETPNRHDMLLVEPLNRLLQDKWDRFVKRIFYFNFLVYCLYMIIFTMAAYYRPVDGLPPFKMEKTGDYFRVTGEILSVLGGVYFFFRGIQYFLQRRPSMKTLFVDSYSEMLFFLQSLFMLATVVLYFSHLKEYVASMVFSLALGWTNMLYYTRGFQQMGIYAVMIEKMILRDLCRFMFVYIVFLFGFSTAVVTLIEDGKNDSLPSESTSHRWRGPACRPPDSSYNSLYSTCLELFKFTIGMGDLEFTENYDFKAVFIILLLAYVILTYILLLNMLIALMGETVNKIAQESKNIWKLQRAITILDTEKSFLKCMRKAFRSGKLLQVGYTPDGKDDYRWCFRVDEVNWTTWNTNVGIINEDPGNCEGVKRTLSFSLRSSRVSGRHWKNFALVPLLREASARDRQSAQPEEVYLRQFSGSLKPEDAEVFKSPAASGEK

Compound	current activation (TRPV1 ion channel; 7.9 fM to 15.8 pM, after 100 nM capsaicin, rate of activation concentration dependent)	reversibility of current response by washout (TRPV1 ion channel; RTX 7.9 fM)	concentrations activating TRPV1 ion channels relative to capsaicin (TRPV1 ion channel; RTX at fM to pM concentrations, FIG. 2)	dose administered without observable side effects [1]	concentrations that fully activate TRPV1 receptor (TRPV1 receptor)	pain sensitivity [2]	effect on thermal hyperalgesia [3]	reversibility of current response by washout (TRPV1 ion channel; capsaicin 100 nM)
C=C(C)[C@]12C[C@@H](C)[C@@]34O[C@](Cc5ccccc5)(O[C@@H]1[C@@H]3C=C(COC(=O)Cc1ccc(O)c(OC)c1)C[C@]1(O)C(=O)C(C)=C[C@@H]41)O2 [RTX, Resiniferatoxin]	activated currents maximally	could not be reversed by washout	five to nine orders of magnitude lower than capsaicin	≤ 0.2 mg/kg	femtomolar-picomolar range	complete loss of pain sensitivity	reversed thermal hyperalgesia	
COc1cc(CNC(=O)CCCC/C=C/C(C)C)ccc1O [capsaicin]								could be reversed by washout
